The record followed here is article PMC3174345 (Arthritis and rheumatism, 2011).

The subject of data set [1] is splenocytes of DR0401-IE mice. Kind of data set: 3H-thymidine proliferation recall assay of splenocytes from immunized mice. In kind it is cell-based, mouse.
Another data set has as its system DR0401-IE mice. To be noted: mouse, in vivo.

Consider “cit-vim59-71: shorter citrullinated vimentin peptide, aa 59-71 (GVYATRSSAVRLR; citrullinated; UniProt P08670 59-71, looked up, fragment)”, for which the “proliferative recall response at 13 weeks” value in data set [1] (immunized DR0401-IE mice harvested at week 13 (supplemental fig. 1)) is recorded as “strong proliferative recall response”. In addition, the “immunodominant region in in vitro restimulation” value in data set [1] (mice immunized with cit-vim59-78, challenge with short peptides at 5 μg/ml, n=13) is on record as “immunologically dominant region”. Further, in the data set on DR0401-IE mice, the “mice developing signs of ankle swelling or polyarthritis” value was “none”.
